# Results published in patent US5773422A, “Avermectin formulation” (priority 1996, dated 1998).
# How the values were obtained:
# [1] = cited from earlier work
# [2] = solubility of avermectins/ivermectin in N-methylpyrrolidone and 2-pyrrolidone formulations; water tolerance (clear solution becomes milky or cloudy as excess water is added); type: physicochemical
# Experimental: Both N-methylpyrrolidone and 2-pyrrolidone have been approved as a safe solvent for injection, but only for oxytetracycline; which is chemically unlike ivermectin. […] Ivermectin can be present in the formulation from 0.1% to 40% (w/v). N-methylpyrrolidone (also known as M-pyrole) can be present from 5% to essentially 100% (v/v) of the formulation. The specific gravity of N-methylpyrrolidone is 1.027 at 25° C. relative to water at 4° C. Additional compounds can be included as desired, e.g. propylene glycol up to 95% by volume, water up to 90% by volume and Clorsulon (an antiparasitic agent frequently co-administered with ivermectin) up to 40% by weight. The formulation can contain water up to amounts which limit avermectin solubility. The maximum amount of water which can be included depends upon the amount of avermectin and the presence of co-solvents such as propylene glycol, and presence of detergent, as illustrated in the Examples. The amount of water which can be present is limited only by avermectin solubility. The presence of too much water can be readily detected because the clear solution becomes milky or cloudy as excess water is added. Where N-methylpyrrolidone is the sole solvent, up to 30% by volume of water can be included in a formulation containing 1% (w/v) ivermectin. If less ivermectin is present, the amount of water can be increased somewhat. If 10% (v/v) propylene glycol is a co-solvent with 20% (w/v) N-methylpyrrolidone, 0.5% ivermectin remains soluble in the presence of water up to about 70% by volume. Compositions containing 2-pyrrolidone completely or partially substituted for N-methylpyrrolidone in the exemplified formulations are equivalent in their solubility properties. As noted above, compositions containing N-methylpyrrolidone are preferred.
# [3] = test system: Rat; conditions: cited from earlier work
# [4] = pain and tissue reaction at the injection site; type: in vivo; conditions: compared with 2-pyrrolidone
# [5] = cited from earlier work; remark: listed apart in the source
Compound,solubility in 1-butanol ([1]; 1-butanol) [mg/mL],solubility in 2-propanol ([1]; 2-propanol) [mg/mL],solubility in acetone ([1]; acetone) [mg/mL],solubility in methylethylketone ([1]; methylethylketone) [mg/mL],"solubility in water ([1]; water, room temperature)","water in the presence of which ivermectin remains soluble ([2]; 0.5% ivermectin, 10% (v/v) propylene glycol co-solvent with 20% (w/v) N-methylpyrrolidone)","solubility in 2-pyrrolidone ([2]; 2-pyrrolidone, to permit formulation of therapeutic compositions)","amount of water which can be included (limited by avermectin solubility) ([2]; N-methylpyrrolidone sole solvent, 1% (w/v) ivermectin)","solubility in N-methylpyrrolidone ([2]; N-methylpyrrolidone, to permit formulation of therapeutic compositions)","LD50 ([3]; Rat, oral) [mg/kg]",oral toxicity [3],pain at the injection site [4],tissue reaction [4],time in which most of the compound is eliminated by the kidneys [5] [h]
"22,23-dihydroavermectin B1 [ivermectin]",330,70,81,320,about 0.005 mg per ml,up to 70 % by volume,sufficiently soluble,up to 30 % by volume,sufficiently soluble,–,–,–,–,–
CN1CCCC1=O [N-methylpyrrolidone],–,–,–,–,–,–,–,–,–,4200,very low order of oral toxicity,less pain at the injection site,less tissue reaction,≤ 24
